# According to US20230123334A1, “AMINO LIPID COMPOUND, PREPARATION METHOD THEREFOR, AND APPLICATION THEREOF” (SHENZHEN SHENXIN BIOTECHNOLOGY CO., LTD., priority 2020, published 2023):
# Test system: HEK293 cells
# Experiment: Preliminary screening as mRNA vectors, EGFP mRNA transfection of HEK293 cells
# Assay type: cell-based
# Settings: EGFP mRNA 50 ng per well, 96-well plates; percentage of GFP fluorescent cells relative to total number of cells (Hoechst)
# Summary of the method: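 Screening format: EGFP mRNA transfection (50 ng/well) into HEK293 in 10% FBS-supplemented DMEM. Percent green fluorescent cells, normalised to Hoechst nuclear count, gave the value; Lipofectamine2000 was the reference transfectant.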
row,SMILES,Absolute mRNA transfection efficiency in HEK293 cells [%]
1,CCCCCCCCCSc1nc(NCCCCCCC)nc(NCC2CCN(C)CC2)n1 [Compound D10S9N7],0.9
2,CCCCCCCCCSc1nc(NCCCCCCCC)nc(NCC2CCN(C)CC2)n1 [Compound D10S9N8],16.3
3,CCCCCCCCCNc1nc(NCC2CCN(C)CC2)nc(SCCCCCCCCC)n1 [Compound D10S9N9],70.0
4,CCCCCCCCCCCNc1nc(NCC2CCN(C)CC2)nc(SCCCCCCCCC)n1 [Compound D10S9N11],66.0
5,CCCCCCCCCCCCNc1nc(NCC2CCN(C)CC2)nc(SCCCCCCCCC)n1 [Compound D10S9N12],57.0
6,CCCCCCCCCCCCCNc1nc(NCC2CCN(C)CC2)nc(SCCCCCCCCC)n1 [Compound D10S9N13],75.8
7,CCCCCCCCCCCCCCCNc1nc(NCC2CCN(C)CC2)nc(SCCCCCCCCC)n1 [Compound D10S9N15],17.5
8,CCCCCCCCCCCCCCCCNc1nc(NCC2CCN(C)CC2)nc(SCCCCCCCCC)n1 [Compound D10S9N16],30.2
9,CCCCCCCCCCCCCCCCCCNc1nc(NCC2CCN(C)CC2)nc(SCCCCCCCCC)n1 [Compound D10S9N18],22.4
10,CCCCCCCCCCSc1nc(NCCCCCC)nc(NCC2CCN(C)CC2)n1 [Compound D10S10N6],0.5
11,CCCCCCCCCCSc1nc(NCCCCCCC)nc(NCC2CCN(C)CC2)n1 [Compound D10S10N7],1.0
12,CCCCCCCCCCSc1nc(NCCCCCCCC)nc(NCC2CCN(C)CC2)n1 [Compound D10S10N8],1.7
13,CCCCCCCCCCSc1nc(NCCCCCCCCC)nc(NCC2CCN(C)CC2)n1 [Compound D10S10N9],4.2
14,CCCCCCCCCCCNc1nc(NCC2CCN(C)CC2)nc(SCCCCCCCCCC)n1 [Compound D10S10N11],8.8
15,CCCCCCCCCCCCNc1nc(NCC2CCN(C)CC2)nc(SCCCCCCCCCC)n1 [Compound D10S10N12],15.5
16,CCCCCCCCCCCCCNc1nc(NCC2CCN(C)CC2)nc(SCCCCCCCCCC)n1 [Compound D10S10N13],8.5
17,CCCCCCCCCCCCCCCNc1nc(NCC2CCN(C)CC2)nc(SCCCCCCCCCC)n1 [Compound D10S10N15],13.2
18,CCCCCCCCCCCCCCCCNc1nc(NCC2CCN(C)CC2)nc(SCCCCCCCCCC)n1 [Compound D10S10N16],15.4
19,CCCCCCCCCCCCCCCCCCNc1nc(NCC2CCN(C)CC2)nc(SCCCCCCCCCC)n1 [Compound D10S10N18],6.0
20,CCCCCCCCCCCSc1nc(NCCCCCC)nc(NCC2CCN(C)CC2)n1 [Compound D10S11N6],6.8
21,CCCCCCCCCCCSc1nc(NCCCCCCC)nc(NCC2CCN(C)CC2)n1 [Compound D10S11N7],18.2
22,CCCCCCCCCCCSc1nc(NCCCCCCCC)nc(NCC2CCN(C)CC2)n1 [Compound D10S11N8],46.1

row,SMILES,Absolute mRNA transfection efficiency in HEK293 cells [%]
1,CCCCCCCCCCCSc1nc(NCCCCCCCCC)nc(NCC2CCN(C)CC2)n1 [Compound D10S11N9],87.7
2,CCCCCCCCCCCNc1nc(NCC2CCN(C)CC2)nc(SCCCCCCCCCCC)n1 [Compound D10S11N11],27.7
3,CCCCCCCCCCCCNc1nc(NCC2CCN(C)CC2)nc(SCCCCCCCCCCC)n1 [Compound D10S11N12],24.7
4,CCCCCCCCCCCCCNc1nc(NCC2CCN(C)CC2)nc(SCCCCCCCCCCC)n1 [Compound D10S11N13],10.4
5,CCCCCCCCCCCCCCCNc1nc(NCC2CCN(C)CC2)nc(SCCCCCCCCCCC)n1 [Compound D10S11N15],18.6
6,CCCCCCCCCCCCCCCCNc1nc(NCC2CCN(C)CC2)nc(SCCCCCCCCCCC)n1 [Compound D10S11N16],10.4
7,CCCCCCCCCCCCCCCCCCNc1nc(NCC2CCN(C)CC2)nc(SCCCCCCCCCCC)n1 [Compound D10S11N18],9.6
8,CCCCCCCCCCCCSc1nc(NCCCCCC)nc(NCC2CCN(C)CC2)n1 [Compound D10S12N6],0.2
9,CCCCCCCCCCCCSc1nc(NCCCCCCC)nc(NCC2CCN(C)CC2)n1 [Compound D10S12N7],1.7
10,CCCCCCCCCCCCSc1nc(NCCCCCCCC)nc(NCC2CCN(C)CC2)n1 [Compound D10S12N8],12.9
11,CCCCCCCCCCCCSc1nc(NCCCCCCCCC)nc(NCC2CCN(C)CC2)n1 [Compound D10S12N9],17.5
12,CCCCCCCCCCCCSc1nc(NCCCCCCCCCCC)nc(NCC2CCN(C)CC2)n1 [Compound D10S12N11],26.6
13,CCCCCCCCCCCCNc1nc(NCC2CCN(C)CC2)nc(SCCCCCCCCCCCC)n1 [Compound D10S12N12],31.5
14,CCCCCCCCCCCCCNc1nc(NCC2CCN(C)CC2)nc(SCCCCCCCCCCCC)n1 [Compound D10S12N13],1.8
15,CCCCCCCCCCCCCCCNc1nc(NCC2CCN(C)CC2)nc(SCCCCCCCCCCCC)n1 [Compound D10S12N15],4.1
16,CCCCCCCCCCCCCCCCNc1nc(NCC2CCN(C)CC2)nc(SCCCCCCCCCCCC)n1 [Compound D10S12N16],3.4
17,CCCCCCCCCCCCCCCCCCNc1nc(NCC2CCN(C)CC2)nc(SCCCCCCCCCCCC)n1 [Compound D10S12N18],4.1
18,CCCCCCCCCCCCCCSc1nc(NCCCCCC)nc(NCC2CCN(C)CC2)n1 [Compound D10S14N6],41.9
19,CCCCCCCCCCCCCCSc1nc(NCCCCCCC)nc(NCC2CCN(C)CC2)n1 [Compound D10S14N7],55.0
20,CCCCCCCCCCCCCCSc1nc(NCCCCCCCC)nc(NCC2CCN(C)CC2)n1 [Compound D10S14N8],43.8
21,CCCCCCCCCCCCCCSc1nc(NCCCCCCCCC)nc(NCC2CCN(C)CC2)n1 [Compound D10S14N9],54.2
22,CCCCCCCCCCCCCCSc1nc(NCCCCCCCCCCC)nc(NCC2CCN(C)CC2)n1 [Compound D10S14N11],21.4

row,SMILES,Absolute mRNA transfection efficiency in HEK293 cells [%]
1,CCCCCCCCCCCCCCSc1nc(NCCCCCCCCCCCC)nc(NCC2CCN(C)CC2)n1 [Compound D10S14N12],6.9
2,CCCCCCCCCCCCCCSc1nc(NCCCCCCCCCCCCC)nc(NCC2CCN(C)CC2)n1 [Compound D10S14N13],11.7
3,CCCCCCCCCCCCCCCNc1nc(NCC2CCN(C)CC2)nc(SCCCCCCCCCCCCCC)n1 [Compound D10S14N15],3.3
4,CCCCCCCCCCCCCCCCNc1nc(NCC2CCN(C)CC2)nc(SCCCCCCCCCCCCCC)n1 [Compound D10S14N16],3.0
5,CCCCCCCCCCCCCCCCCCNc1nc(NCC2CCN(C)CC2)nc(SCCCCCCCCCCCCCC)n1 [Compound D10S14N18],2.6
6,CCCCCCCCCCCCCCCSc1nc(NCCCCCC)nc(NCC2CCN(C)CC2)n1 [Compound D10S15N6],18.4
7,CCCCCCCCCCCCCCCSc1nc(NCCCCCCC)nc(NCC2CCN(C)CC2)n1 [Compound D10S15N7],22.1
8,CCCCCCCCCCCCCCCSc1nc(NCCCCCCCC)nc(NCC2CCN(C)CC2)n1 [Compound D10S15N8],12.9
9,CCCCCCCCCCCCCCCSc1nc(NCCCCCCCCC)nc(NCC2CCN(C)CC2)n1 [Compound D10S15N9],12.8
10,CCCCCCCCCCCCCCCSc1nc(NCCCCCCCCCCC)nc(NCC2CCN(C)CC2)n1 [Compound D10S15N11],2.7
11,CCCCCCCCCCCCCCCSc1nc(NCCCCCCCCCCCC)nc(NCC2CCN(C)CC2)n1 [Compound D10S15N12],5.1
12,CCCCCCCCCCCCCCCSc1nc(NCCCCCCCCCCCCC)nc(NCC2CCN(C)CC2)n1 [Compound D10S15N13],5.4
13,CCCCCCCCCCCCCCCNc1nc(NCC2CCN(C)CC2)nc(SCCCCCCCCCCCCCCC)n1 [Compound D10S15N15],2.4
14,CCCCCCCCCCCCCCCCNc1nc(NCC2CCN(C)CC2)nc(SCCCCCCCCCCCCCCC)n1 [Compound D10S15N16],6.1
15,CCCCCCCCCCCCCCCCCCNc1nc(NCC2CCN(C)CC2)nc(SCCCCCCCCCCCCCCC)n1 [Compound D10S15N18],4.2
16,CCCCCCCCCCCCCCCCSc1nc(NCCCCCC)nc(NCC2CCN(C)CC2)n1 [Compound D10S16N6],86.9
17,CCCCCCCCCCCCCCCCSc1nc(NCCCCCCC)nc(NCC2CCN(C)CC2)n1 [Compound D10S16N7],29.6
18,CCCCCCCCCCCCCCCCSc1nc(NCCCCCCCC)nc(NCC2CCN(C)CC2)n1 [Compound D10S16N8],70.4
19,CCCCCCCCCCCCCCCCSc1nc(NCCCCCCCCC)nc(NCC2CCN(C)CC2)n1 [Compound D10S16N9],49.2
20,CCCCCCCCCCCCCCCCSc1nc(NCCCCCCCCCCC)nc(NCC2CCN(C)CC2)n1 [Compound D10S16N11],37.8
